Among the data in ChEMBL document CHEMBL6127065, “Design and Synthesis of c-Met and HDAC Dual Inhibitors for the Treatment of Breast Cancer” (ACS Med Chem Lett, 2024) are IC50 and inhibition values, retold here.

The structures appear in SMILES notation.

One assay relates to MDA-MB-231. In words: Antiproliferative activity against human MDA-MB-231 cells assessed as reduction in cell growth incubated for 72 hrs by MTT assay. Conditions: MDA-MB-231, 72 h. For orientation: Tetrazolium dyes change colour on reduction, which living cells bring about.
A further assay has as its system MDA-MB-468. In words: Antiproliferative activity against human MDA-MB-468 cells assessed as reduction in cell growth incubated for 72 hrs by MTT assay. The settings on record: MDA-MB-468, 72 h.
Another assay relates to MDA-MB-453. In words: Antiproliferative activity against human MDA-MB-453 cells assessed as reduction in cell growth incubated for 72 hrs by MTT assay. Conditions: MDA-MB-453, 72 h.
The target in assay [1] is T1, Protein deacetylase HDAC6 (Homo sapiens) (UniProt Q9UBN7).
T1 sequence (whole entry): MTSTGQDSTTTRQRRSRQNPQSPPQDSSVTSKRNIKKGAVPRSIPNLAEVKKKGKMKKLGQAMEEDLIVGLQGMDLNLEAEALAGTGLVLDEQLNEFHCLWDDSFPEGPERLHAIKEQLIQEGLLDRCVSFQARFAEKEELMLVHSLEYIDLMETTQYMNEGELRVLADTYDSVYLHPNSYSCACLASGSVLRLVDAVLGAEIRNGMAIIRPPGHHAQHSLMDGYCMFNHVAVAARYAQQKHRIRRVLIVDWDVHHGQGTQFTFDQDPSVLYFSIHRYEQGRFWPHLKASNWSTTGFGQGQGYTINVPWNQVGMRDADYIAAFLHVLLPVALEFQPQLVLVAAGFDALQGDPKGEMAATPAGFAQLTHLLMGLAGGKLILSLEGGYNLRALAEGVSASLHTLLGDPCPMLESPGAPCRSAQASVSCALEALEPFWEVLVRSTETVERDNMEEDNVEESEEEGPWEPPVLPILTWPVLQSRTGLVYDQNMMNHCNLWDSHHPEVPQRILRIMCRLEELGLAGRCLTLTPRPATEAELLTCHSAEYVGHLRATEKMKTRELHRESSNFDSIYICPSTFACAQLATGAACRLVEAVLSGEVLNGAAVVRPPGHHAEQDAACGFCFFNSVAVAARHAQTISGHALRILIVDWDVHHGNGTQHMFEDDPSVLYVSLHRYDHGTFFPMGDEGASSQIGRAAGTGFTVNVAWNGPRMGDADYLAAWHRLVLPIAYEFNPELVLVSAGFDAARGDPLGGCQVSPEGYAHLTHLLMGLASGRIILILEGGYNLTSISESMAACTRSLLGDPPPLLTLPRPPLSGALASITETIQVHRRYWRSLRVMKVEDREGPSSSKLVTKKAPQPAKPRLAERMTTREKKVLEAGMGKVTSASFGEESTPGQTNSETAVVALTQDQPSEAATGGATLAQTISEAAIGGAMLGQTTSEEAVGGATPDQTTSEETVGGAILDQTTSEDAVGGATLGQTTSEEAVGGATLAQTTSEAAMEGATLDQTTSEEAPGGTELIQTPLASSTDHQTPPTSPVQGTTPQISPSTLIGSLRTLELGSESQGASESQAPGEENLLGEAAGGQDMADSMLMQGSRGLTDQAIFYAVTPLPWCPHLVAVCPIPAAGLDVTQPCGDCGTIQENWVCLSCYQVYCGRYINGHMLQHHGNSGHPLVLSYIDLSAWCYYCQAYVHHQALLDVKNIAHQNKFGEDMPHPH
Conditions: dose 1000.0 nM, time 60.0 min.

Assay [2] addresses Hepatocyte growth factor receptor (Homo sapiens, UniProt P08581). In words: Inhibition of c-Met (unknown origin) using Poly(Glu:Tyr)(4:1) and ATP as substrate incubated for 45 mins by Kinase-Glo Max reagent based luminescence analysis. For orientation: In Kinase-Glo more light means more ATP remaining.

Hepatocyte growth factor receptor, sequence (P08581 whole entry): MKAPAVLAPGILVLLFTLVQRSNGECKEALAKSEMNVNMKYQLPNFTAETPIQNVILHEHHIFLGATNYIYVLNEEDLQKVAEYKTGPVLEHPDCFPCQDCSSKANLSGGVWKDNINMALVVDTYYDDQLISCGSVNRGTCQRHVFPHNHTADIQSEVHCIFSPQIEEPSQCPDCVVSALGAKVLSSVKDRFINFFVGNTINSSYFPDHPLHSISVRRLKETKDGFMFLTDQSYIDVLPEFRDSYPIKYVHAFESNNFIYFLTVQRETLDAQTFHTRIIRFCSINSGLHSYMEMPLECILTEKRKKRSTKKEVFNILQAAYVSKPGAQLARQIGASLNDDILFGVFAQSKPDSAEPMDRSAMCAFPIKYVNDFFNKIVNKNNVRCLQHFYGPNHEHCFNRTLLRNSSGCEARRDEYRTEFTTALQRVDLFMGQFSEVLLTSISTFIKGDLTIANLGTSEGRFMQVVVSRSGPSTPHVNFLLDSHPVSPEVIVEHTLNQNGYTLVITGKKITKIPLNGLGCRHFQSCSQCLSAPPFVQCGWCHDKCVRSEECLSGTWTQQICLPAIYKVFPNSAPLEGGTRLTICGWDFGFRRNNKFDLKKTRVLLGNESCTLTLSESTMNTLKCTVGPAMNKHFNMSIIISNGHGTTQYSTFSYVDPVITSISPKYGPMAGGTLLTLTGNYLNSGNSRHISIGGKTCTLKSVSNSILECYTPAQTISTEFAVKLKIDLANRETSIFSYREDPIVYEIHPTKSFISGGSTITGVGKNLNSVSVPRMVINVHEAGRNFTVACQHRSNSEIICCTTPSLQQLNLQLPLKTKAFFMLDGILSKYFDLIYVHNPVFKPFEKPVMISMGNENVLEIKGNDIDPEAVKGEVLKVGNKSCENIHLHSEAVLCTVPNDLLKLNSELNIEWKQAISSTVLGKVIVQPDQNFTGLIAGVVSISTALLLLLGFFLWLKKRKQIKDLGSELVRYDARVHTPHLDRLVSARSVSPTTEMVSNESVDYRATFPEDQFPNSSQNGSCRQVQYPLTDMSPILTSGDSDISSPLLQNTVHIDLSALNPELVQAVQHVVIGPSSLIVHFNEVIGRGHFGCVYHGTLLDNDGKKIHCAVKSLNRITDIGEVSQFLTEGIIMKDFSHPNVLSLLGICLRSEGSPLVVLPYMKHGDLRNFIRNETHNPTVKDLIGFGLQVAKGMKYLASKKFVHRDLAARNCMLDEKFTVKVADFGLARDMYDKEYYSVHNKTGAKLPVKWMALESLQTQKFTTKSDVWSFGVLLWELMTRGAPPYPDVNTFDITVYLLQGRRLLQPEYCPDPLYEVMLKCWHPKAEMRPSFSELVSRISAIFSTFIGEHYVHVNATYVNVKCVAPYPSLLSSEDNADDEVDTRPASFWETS

Consider `CC(c1ccc2ncccc2c1)n1nnc2ncc(N3CCN(CC(=O)Nc4ccccc4N)CC3)nc21` (stereo not drawn), for which the IC50 in the assay on MDA-MB-231 amounted to 26.6 µM; with MDA-MB-468, 14.2 µM; with MDA-MB-453, 27.2 µM.
On the same counts, the results for `CC(c1ccc2ncccc2c1)n1nnc2ncc(N3CCN(Cc4ccc(CC(=O)Nc5ccc(F)cc5N)cc4)CC3)nc21` (stereo not drawn) are 6.46 µM, 3.92 µM and 5.91 µM.
As for `CC(c1ccc2ncccc2c1)n1nnc2ncc(N3CCN(CCC(=O)Nc4ccccc4N)CC3)nc21` (stereo not drawn), the IC50 in the assay with MDA-MB-231 came out at 30.4 µM; in the assay with MDA-MB-468, 21.9 µM; with MDA-MB-453, 30.8 µM.
For `CC(c1ccc2ncccc2c1)n1nnc2ncc(N3CCN(Cc4ccc(CC(=O)Nc5ccccc5N)cc4)CC3)nc21` (stereo not drawn) the same measures were 8.64 µM, 6.35 µM and 8.94 µM.
For `CC(c1ccc2ncccc2c1)n1nnc2ncc(N3CCN(CCCC(=O)Nc4ccc(F)cc4N)CC3)nc21` (stereo not drawn) the same measures were 26.6 µM, 12.1 µM and 31.1 µM.
On the same counts, the results for `C[C@@H](Oc1cc(-c2cnn(C3CCNCC3)c2)cnc1N)c1c(Cl)ccc(F)c1Cl` [CRIZOTINIB] are 4.9 µM, 2.62 µM and 4.69 µM.
As to `CC(c1ccc2ncccc2c1)n1nnc2ncc(N3CCN(CC(=O)Nc4ccc(F)cc4N)CC3)nc21` (stereo not drawn), the IC50 in the assay with MDA-MB-231 was determined as 18.4 µM; in the assay with MDA-MB-468, 12.2 µM; in the assay with MDA-MB-453 it was 22.1 µM.
Turning to `Nc1cc(F)ccc1NC(=O)c1ccc(CNC(=O)/C=C/c2cccnc2)cc1` [TUCIDINOSTAT], the results for the IC50 in the assay with MDA-MB-231, in the assay with MDA-MB-468 and in the assay with MDA-MB-453 were 1.72 µM, 3.48 µM and 0.63 µM, respectively. Moreover, the inhibition in assay [1] turned out to be 2.6%.
Take `C[C@@H](c1ccc2nccn2c1)n1nnc2ncc(-c3cnn(C)c3)nc21` [SAVOLITINIB]: in assay [2], the IC50 turned out to be 0.00142 µM.
As for `CC(c1ccc2ncccc2c1)n1nnc2ncc(N3CCN(CCCC(=O)Nc4ccccc4N)CC3)nc21` (stereo not drawn), the IC50 with MDA-MB-231 was determined as 22.8 µM; with MDA-MB-468, 18.9 µM; with MDA-MB-453 it was 22.9 µM.
In the case of `CC(c1ccc2ncccc2c1)n1nnc2ncc(N3CCN(CCC(=O)Nc4ccc(F)cc4N)CC3)nc21` (stereo not drawn), the 50% inhibitory concentration (IC50) with MDA-MB-231 is 22.7 µM; in the assay with MDA-MB-468 it was 9.15 µM; in the assay on MDA-MB-453, 27.6 µM.
For `CC(c1ccc2ncccc2c1)n1nnc2ncc(N3CCN(Cc4ccc(C(=O)Nc5ccc(F)cc5N)cc4)CC3)nc21` (stereo not drawn) the same measures were 5.91 µM, 4.11 µM and 6.28 µM.
With `CC(c1ccc2ncccc2c1)n1nnc2ncc(N3CCN(Cc4ccc(C(=O)Nc5ccccc5N)cc4)CC3)nc21` (stereo not drawn), the IC50 in the assay with MDA-MB-231 came out at 15.3 µM; in the assay with MDA-MB-468, 12.8 µM; in the assay with MDA-MB-453, 16 µM.

As a reminder, the IC50 is the concentration needed to halve the response being measured. As a reminder, the inhibition is how much of the control response was suppressed. Low values mean a response near the control, high ones a response far below the control.
